Where only a bound is given, the exact number is not on record here.

Assay [1] addresses human AT2R fused to Cb23 (Homo sapiens, UniProt P50052). Put plainly: Radioligand binding assay, displacement of 125I-[Sar1, Ile8]-Angiotensin II, hAT2R Cb23. To be noted: displacement of 125I-[Sar1, Ile8]-Angiotensin II, human AT2R fused to Cb23, HEK-293 cell membrane preparations; read-out: Binding affinity on hAT2R_Cb23 IC50. The method, boiled down:
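Membranes from HEK-293 cells expressing human AT2R fused to Cb23 were incubated with 0.05 nM 125I-[Sar1, Ile8]-Angiotensin II in 100 μL buffer (50 mM Tris, 5 mM MgCl2, 1 mM EDTA, 0.1% BSA, pH 7.4) for one hour at 25° C. Ligands were tested as eight-point dose-response curves in duplicate, with C21 and Angiotensin II as references.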
A general note: Displacement assays read how much labelled ligand stays bound in the presence of the test substance.

Assay [2] deals with human AT1R (Homo sapiens (Human), UniProt P30556). Put plainly: Counterscreen radioligand binding assay, displacement of 125I-[Sar1, Ile8]-Angiotensin II, hAT1R WT. To be noted: for inhibition at 1 µM / inhibition at 10 µM: 125I-[Sar1, Ile8]-Ang II, semi-quantitative score; for inhibition at 1 µM: compound at 1 μM, read-out: % Displaced radioligand at 1 μM; for inhibition at 10 µM: compound at 10 μM, read-out: % Displaced radioligand at 10 μM; for IC50: HEK-293 cell membranes, read-out: Binding affinity On hAT1R IC50. The method, boiled down:
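Membranes from HEK-293 cells expressing human AT1R were incubated for one hour at 25° C, pH 7.4, with 0.05 nM radiolabelled [Sar1, Ile8]-Ang II and test ligand. Bound radioactivity was collected on PEI-soaked filters, with 10 μM unlabelled [Sar1]-Ang II defining non-specific binding. Results are percent displacement at 1 μM and […], or IC50 from eight-point duplicate curves.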
On the technique in general: Counterscreens check selectivity or assay interference.

human AT1R, sequence (P30556 whole entry): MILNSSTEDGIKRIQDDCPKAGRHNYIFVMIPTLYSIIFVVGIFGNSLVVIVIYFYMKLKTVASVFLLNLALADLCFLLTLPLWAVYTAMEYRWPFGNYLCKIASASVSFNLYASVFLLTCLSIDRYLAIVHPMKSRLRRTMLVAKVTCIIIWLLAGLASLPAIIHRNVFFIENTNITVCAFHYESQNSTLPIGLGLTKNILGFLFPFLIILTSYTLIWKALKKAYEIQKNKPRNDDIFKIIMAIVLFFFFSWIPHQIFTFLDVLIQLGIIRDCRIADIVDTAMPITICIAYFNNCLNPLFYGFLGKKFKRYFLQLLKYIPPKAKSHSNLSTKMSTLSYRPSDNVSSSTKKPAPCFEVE
human AT2R fused to Cb23, sequence (P50052 whole entry, looked up, the tested form may be a part): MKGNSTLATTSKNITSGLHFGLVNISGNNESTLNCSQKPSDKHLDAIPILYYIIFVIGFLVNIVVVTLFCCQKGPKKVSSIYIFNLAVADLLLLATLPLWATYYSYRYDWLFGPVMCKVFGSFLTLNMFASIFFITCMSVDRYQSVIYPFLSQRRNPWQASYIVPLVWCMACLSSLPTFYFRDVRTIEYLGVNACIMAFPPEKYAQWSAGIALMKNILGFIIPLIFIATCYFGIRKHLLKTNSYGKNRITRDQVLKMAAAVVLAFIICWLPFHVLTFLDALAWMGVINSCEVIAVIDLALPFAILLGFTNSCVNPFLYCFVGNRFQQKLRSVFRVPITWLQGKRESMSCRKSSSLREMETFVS

A word on the IC50: it is the concentration that inhibits the measured activity by half. As for `CCc1cc(-c2nn[nH]n2)c(N2CCN(Cc3nc4ccccc4s3)CC2)cc1OC(C)C` [Compound A-119, 2-[[4-[4-ethyl-5-isopropoxy-2-(2H-tetrazol-5-yl)phen-yl]piperazin-1-yl]-methyl]-1,3-benzo-thiazole], the IC50 in assay [1] came out at 9.42 µM. Also, in assay [2], the inhibition at 1 µM is less than 30% and the inhibition at 10 µM is less than 30%.
As to `CCc1cc(OC(C)C)cc(N2CCN(Cc3nc4ccccc4s3)CC2)c1-c1nn[nH]n1` [Compound A-120, 2-[[4-[3-ethyl-5-iso-propoxy-2-(2H-tetrazol-5-yl)phen-yl]piperazin-1-yl]-methyl]-1,3-benzo-thiazole], the IC50 in assay [1] worked out at 0.459 µM. Moreover, in assay [2], the inhibition at 1 µM was less than 30% and the inhibition at 10 µM was less than 30%.
In the case of `CC(C)Oc1cc(N2CCN(Cc3nc4ccccc4s3)CC2)c(-c2nn[nH]n2)cc1C1CC1` [Compound A-121, 2-[[4-[4-cycloprop-yl-5-isopropoxy-2-(2H-tetrazol-5-yl)-phenyl]piperazin-1-yl]methyl]-1,3-benzothiazole], in assay [1], the IC50 amounted to 2.78 µM. In assay [2], the inhibition at 1 µM is less than 30%, the inhibition at 10 µM fell in the range of 30 to 50% and the IC50 was 11.7 µM.
With `CC(C)Oc1cc(C2CC2)c(-c2nn[nH]n2)c(N2CCN(Cc3nc4ccccc4s3)CC2)c1` [Compound A-122, 2-[[4-[3-cycloprop-yl-5-isopropoxy-2-(2H-tetrazol-5-yl)-phenyl]piperazin-1-yl]methyl]-1,3-benzothiazole], in assay [1], the concentration for half-maximal inhibition (IC50) came to 0.293 µM. Also, in assay [2], the inhibition at 1 µM is less than 30% and the inhibition at 10 µM was less than 30%.
For the compound `CCOc1cc(-c2nn[nH]n2)c(N2CCN(Cc3nc4ccccc4s3)CC2)cc1OC(C)C` [Compound A-123, 2-[[4-[4-ethoxy-5-isopropoxy-2-(2H-tetrazol-5-yl)phen-yl]piperazin-1-yl]-methyl]-1,3-benzo-thiazole], the IC50 in assay [1] was 4.88 µM. For the same compound, in assay [2], the inhibition at 1 µM is less than 30% and the inhibition at 10 µM is less than 30%.
As for `Fc1cc(C2CC2)cc(N2CCN(Cc3nc4ccccc4s3)CC2)c1-c1nn[nH]n1` [Compound A-125, 2-[[4-[5-cycloprop-yl-3-fluoro-2-(2H-tetrazol-5-yl)phen-yl]piperazin-1-yl]-methyl]-1,3-benzo-thiazole], the IC50 in assay [1] turned out to be 0.389 µM. Further, in assay [2], the inhibition at 1 µM was less than 30% and the inhibition at 10 µM was less than 30%.
For `Cc1cc(C2CC2)cc(N2CCN(Cc3nc4ccccc4s3)CC2)c1-c1nn[nH]n1` [Compound A-127, 2-[[4-[5-cycloprop-yl-3-methyl-2-(2H-tetrazol-5-yl)phen-yl]piperazin-1-yl]-methyl]-1,3-benzo-thiazole], in assay [1], the IC50 came to 0.0744 µM. In assay [2], the inhibition at 1 µM is less than 30% and the inhibition at 10 µM was less than 30%.
In the case of `CCc1cc(C2CC2)cc(N2CCN(Cc3nc4ccccc4s3)CC2)c1-c1nn[nH]n1` [Compound A-128, 2-[[4-[5-cycloprop-yl-3-ethyl-2-(2H-tetrazol-5-yl)phen-yl]piperazin-1-yl]-methyl]-1,3-benzo-thiazole], the IC50 in assay [1] came to 2.19 µM. In addition, in assay [2], the inhibition at 1 µM was in the range of 30 to 50%, the inhibition at 10 µM is more than 50% and the IC50 is 18.2 µM.
For the compound `c1ccc2sc(CN3CCN(c4cc(C5CC5)cc(C5CC5)c4-c4nn[nH]n4)CC3)nc2c1` [Compound A-129, 2-[[4-[3,5-dicyclo-propyl-2-(2H-tetrazol-5-yl)phen-yl]piperazin-1-yl]-methyl]-1,3-benzo-thiazole], the IC50 in assay [1] was found to be 0.158 µM. Moreover, in assay [2], the inhibition at 1 µM was less than 30% and the inhibition at 10 µM is less than 30%.
On to `CC(C)Cc1cc(F)c(-c2nn[nH]n2)c(N2CCN(Cc3nc4ccccc4s3)CC2)c1` [Compound A-132, 2-[[4-[3-fluoro-5-isobutyl-2-(2H-tetrazol-5-yl)phen-yl]piperazin-1-yl]-methyl]-1,3-benzo-thiazole], for which the IC50 in assay [1] was found to be 0.355 µM. In addition, in assay [2], the inhibition at 1 µM was less than 30% and the inhibition at 10 µM was less than 30%.
Take `CC(C)Cc1cc(N2CCN(Cc3nc4ccccc4s3)CC2)c(-c2nn[nH]n2)cc1F` [Compound A-133, 2-[[4-[4-fluoro-5-isobutyl-2-(2H-tetrazol-5-yl)phen-yl]piperazin-1-yl]-methyl]-1,3-benzo-thiazole]: the IC50 in assay [1] came to 1.19 µM. Moreover, in assay [2], the inhibition at 1 µM was less than 30% and the inhibition at 10 µM is less than 30%.
Consider `Cc1cc(-c2nn[nH]n2)c(N2CCN(Cc3nc4ccccc4s3)CC2)cc1CC(C)C` [Compound A-134, 2-[[4-[5-isobutyl-4-methyl-2-(2H-tetrazol-5-yl)phen-yl]piperazin-1-yl]-methyl]-1,3-benzo-thiazole], for which the IC50 in assay [1] was determined as 9.66 µM. Besides, in assay [2], the inhibition at 1 µM was less than 30% and the inhibition at 10 µM is less than 30%.
As for `Cc1cc(CC(C)C)cc(N2CCN(Cc3nc4ccccc4s3)CC2)c1-c1nn[nH]n1` [Compound A-135], the IC50 in assay [1] amounted to 0.022 µM. For the same compound, in assay [2], the inhibition at 1 µM was less than 30% and the inhibition at 10 µM was less than 30%.
With `CCc1cc(CC(C)C)cc(N2CCN(Cc3nc4ccccc4s3)CC2)c1-c1nn[nH]n1` [Compound A-136, 2-[[4-[3-ethyl-5-isobutyl-2-(2H-tetrazol-5-yl)phen-yl]piperazin-1-yl]-methyl]-1,3-benzo-thiazole], in assay [1], the 50% inhibitory concentration (IC50) was found to be 0.0121 µM. Moreover, in assay [2], the inhibition at 1 µM is less than 30% and the inhibition at 10 µM is less than 30%.
`CC(C)Cc1cc(C2CC2)c(-c2nn[nH]n2)c(N2CCN(Cc3nc4ccccc4s3)CC2)c1` [Compound A-137, 2-[[4-[3-cycloprop-yl-5-isobutyl-2-(2H-tetrazol-5-yl)-phenyl]piperazin-1-yl]methyl]-1,3-benzothiazole]: the IC50 in assay [1] was determined as 0.016 µM. For the same compound, in assay [2], the inhibition at 1 µM is less than 30% and the inhibition at 10 µM is less than 30%.
As for `CC(C)Cc1cc(N2CCN(Cc3nc4ccccc4s3)CC2)c(-c2nn[nH]n2)cc1N` [Compound A-138, 4-[4-(1,3-benzo-thiazol-2-ylmethyl)-piperazin-1-yl]-2-isobutyl-5-(2H-tetrazol-5-yl)aniline], in assay [1], the IC50 stood at 4.71 µM. For the same compound, in assay [2], the inhibition at 1 µM is less than 30% and the inhibition at 10 µM was less than 30%.
Regarding `CNc1cc(-c2nn[nH]n2)c(N2CCN(Cc3nc4ccccc4s3)CC2)cc1CC(C)C` [Compound A-139, 4-[4-(1,3-benzothi-azol-2-ylmethyl)-piperazin-1-yl]-2-isobutyl-N-methyl-5-(2H-tetrazol-5-yl)aniline], in assay [1], the IC50 amounted to 4.96 µM. In addition, in assay [2], the inhibition at 1 µM was less than 30% and the inhibition at 10 µM was less than 30%.
Take `CCNc1cc(-c2nn[nH]n2)c(N2CCN(Cc3nc4ccccc4s3)CC2)cc1CC(C)C` [Compound A-140, 4-[4-(1,3-benzo-thiazol-2-ylmethyl)-piperazin-1-yl]-N-ethyl-2-isobutyl-5-(2H-tetrazol-5-yl)-aniline]: the IC50 in assay [1] was 0.736 µM. In assay [2], the inhibition at 1 µM is less than 30%, the inhibition at 10 µM was in the range of 30 to 50% and the IC50 came to 24.7 µM.
Regarding `CCc1ccc(-c2nn[nH]n2)c(N2CCN(Cc3nc4ccccc4s3)CC2)n1` [Compound A-142, 2-[[4-[6-ethyl-3-(2H-tetrazol-5-yl)-2-pyridyl]piperazin-1-yl]methyl]-1,3-benzothiazole], the IC50 in assay [1] was 9.11 µM. Besides, in assay [2], the inhibition at 1 µM was less than 30% and the inhibition at 10 µM was in the range of 30 to 50%.

The values above are taken from patent publication US20240368133A1, “Compounds for the Treatment of Pain, in Particular, Neuropathic Pain, and/or Other Diseases or Disorders that are Associated with AT2R and/or AT2R Mediated Signaling” (Confo Therapeutics N.V., priority 2021, published 2024).
